This passage reports T/C results from PubChem BioAssay AID256 (DTP/NCI, 2004).

The test system of this assay is CD2F1 mice, L1210 leukemia ip, survival T/C. Briefly: NCI In Vivo Anticancer Drug Screen. Data for tumor model L1210 Leukemia (intraperitoneal) in CD2F1 (CDF1) mice. To be noted: higher = longer survival. The essentials:
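Read-out first: treated-group measurement over vehicle-control measurement, expressed as a ratio. Animals bore a transplanted tumor line and were dosed with compound or vehicle.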

Setting [1] is: endpoint: mean survival time, dose: 100.0 mg/kg/injection, schedule: Q01DX001 (ip), vehicle: saline with Tween-80.
Setting [2] is: endpoint: mean survival time, dose: 200.0 mg/kg/injection, schedule: Q01DX001 (ip), vehicle: saline with Tween-80.
Where [3] appears, read: endpoint: mean survival time, dose: 200.0 mg/kg/injection, schedule: Q01DX009 (ip), vehicle: saline with Tween-80.
Setting [4] is: endpoint: mean survival time, dose: 400.0 mg/kg/injection, schedule: Q01DX009 (ip), vehicle: saline with Tween-80.
[5] abbreviates: endpoint: mean survival time, dose: 400.0 mg/kg/injection, schedule: Q01DX001 (ip), vehicle: saline with Tween-80.
Setting [6] is: endpoint: mean survival time, dose: 100.0 mg/kg/injection, schedule: Q01DX009 (ip), vehicle: saline with Tween-80.
Setting [7] is: endpoint: mean survival time, dose: 50.0 mg/kg/injection, schedule: Q01DX009 (ip), vehicle: saline with Tween-80.
Setting [8] is: endpoint: mean survival time, dose: 100.0 mg/kg/injection, schedule: Q04DX002 (ip), vehicle: saline with Tween-80.
[9] abbreviates: endpoint: mean survival time, dose: 200.0 mg/kg/injection, schedule: Q04DX002 (ip), vehicle: saline with Tween-80.
Setting [10] is: endpoint: mean survival time, dose: 400.0 mg/kg/injection, schedule: Q04DX002 (ip), vehicle: saline with Tween-80.
[11] abbreviates: endpoint: mean survival time, dose: 25.0 mg/kg/injection, schedule: Q01DX009 (ip), vehicle: saline with Tween-80.
Where [12] appears, read: endpoint: mean survival time, dose: 25.0 mg/kg/injection, schedule: Q04DX003 (ip), vehicle: saline with Tween-80.
[13] abbreviates: endpoint: mean survival time, dose: 50.0 mg/kg/injection, schedule: Q04DX003 (ip), vehicle: saline with Tween-80.

Inconclusive results and toxic doses are left out.

As to `O=[N+]([O-])c1ccccc1N=C(c1ccccc1)N(O)c1ccccc1`, the T/C (endpoint: mean survival time, dose: 9.4 mg/kg/injection, schedule: Q01DX009 (ip), vehicle: saline with Tween-80) was 101 % of control; the T/C (endpoint: mean survival time, dose: 9.4 mg/kg/injection, schedule: Q04DX003 (ip), vehicle: saline with Tween-80) is 98 % of control; the T/C (endpoint: mean survival time, dose: 18.8 mg/kg/injection, schedule: Q01DX001 (ip), vehicle: saline) was 101 % of control; the T/C (endpoint: mean survival time, dose: 18.8 mg/kg/injection, schedule: Q01DX009 (ip), vehicle: saline with Tween-80) was 104 % of control; the T/C (endpoint: mean survival time, dose: 18.8 mg/kg/injection, schedule: Q04DX003 (ip), vehicle: saline with Tween-80) is 100 % of control; the T/C (endpoint: mean survival time, dose: 37.5 mg/kg/injection, schedule: Q01DX001 (ip), vehicle: saline) is 102 % of control.
As for `ClC1C(c2ccccc2)=C(c2ccccc2)c2ccccc21` (stereo unspecified), the T/C by setting is: under setting [1], 87 % of control; under setting [2], 91 % of control; under setting [3], 101 % of control; under setting [4], 98 % of control.
In the case of `C[C@]12CCCC[C@@H]1CC[C@@H]1[C@@H]2CC[C@]2(C)[C@@H](N(CCO)CCCO)CC[C@@H]12`, the T/C was 98 % of control (endpoint: mean survival time, dose: 100.0 mg/kg/injection, schedule: Q04DX003 (sc), vehicle: steriod suspending solution); 91 % of control (endpoint: mean survival time, dose: 200.0 mg/kg/injection, schedule: Q04DX003 (sc), vehicle: steriod suspending solution); 107 % of control (endpoint: mean survival time, dose: 400.0 mg/kg/injection, schedule: Q04DX003 (sc), vehicle: steriod suspending solution).
Consider `C(=C\CN1CCOCC1)/CN1CCOCC1`, for which the T/C was 91 % of control (endpoint: mean survival time, dose: 100.0 mg/kg/injection, schedule: Q01DX009 (ip), vehicle: saline); 97 % of control (endpoint: mean survival time, dose: 200.0 mg/kg/injection, schedule: Q01DX009 (ip), vehicle: saline); 97 % of control (endpoint: mean survival time, dose: 400.0 mg/kg/injection, schedule: Q01DX009 (ip), vehicle: saline).
On to `CCOC(=O)c1ccc2c(ccc[n+]2C)c1`, for which the T/C is 112 % of control (endpoint: mean survival time, dose: 37.5 mg/kg/injection, schedule: Q01DX009 (ip), vehicle: saline with Tween-80); 107 % of control (endpoint: mean survival time, dose: 75.0 mg/kg/injection, schedule: Q01DX009 (ip), vehicle: saline with Tween-80); 103 % of control (endpoint: mean survival time, dose: 150.0 mg/kg/injection, schedule: Q01DX009 (ip), vehicle: saline with Tween-80).
`CC(=O)O/N=C(\C(c1ccccc1)c1ccccc1)C1c2ccccc2-c2ccccc21`: the T/C runs as follows: under setting [1], 87 % of control; under setting [2], 87 % of control; under setting [5], 90 % of control.
For `Cc1ccc(S(=O)(=O)N(C)Cc2ccccc2)cc1`, the T/C by setting is: under setting [6], 96 % of control; under setting [3], 106 % of control; under setting [4], 98 % of control.
For the molecule `O=C(O)CCOc1ccc([N+](=O)[O-])cc1`, the T/C under setting [6] was 96 % of control, the T/C under setting [3] is 98 % of control and the T/C under setting [4] was 94 % of control.
Take `CC(=O)OCC#CCOC(C)=O`: the T/C under setting [7] was 93 % of control.
Turning to `CCCCCOP(N)(=O)OCCCCC`, the T/C by setting is: under setting [8], 88 % of control; under setting [9], 92 % of control; under setting [10], 100 % of control.
Consider `CCC(=O)/C(=C\c1ccccc1Cl)C(C)=O`, for which the T/C is 100 % of control under setting [6] and 97 % of control under setting [3].
As to `CC(=O)c1ccccc1C(C)C`, the T/C is 91 % of control under setting [11], 96 % of control under setting [7] and 94 % of control under setting [6].
As to `[I][Pt+2][I].[NH-]c1cccc(F)c1.[NH-]c1cccc(F)c1`, the T/C (endpoint: mean survival time, dose: 3.13 mg/kg/injection, schedule: Q04DX003 (ip), vehicle: distilled water + Tween-80) is 102 % of control; the T/C (endpoint: mean survival time, dose: 6.25 mg/kg/injection, schedule: Q04DX003 (ip), vehicle: distilled water + Tween-80) was 102 % of control; the T/C (endpoint: mean survival time, dose: 12.5 mg/kg/injection, schedule: Q04DX003 (ip), vehicle: distilled water + Tween-80) is 106 % of control; the T/C (endpoint: mean survival time, dose: 25.0 mg/kg/injection, schedule: Q04DX003 (ip), vehicle: distilled water + Tween-80) was 106 % of control; the T/C (endpoint: mean survival time, dose: 50.0 mg/kg/injection, schedule: Q04DX003 (ip), vehicle: distilled water + Tween-80) is 112 % of control; the T/C (endpoint: mean survival time, dose: 100.0 mg/kg/injection, schedule: Q04DX003 (ip), vehicle: distilled water + Tween-80) was 118 % of control.
On to `C=CN1C(=O)NC2(CCCCC2)C1=O`, for which the T/C was 96 % of control under setting [11]; 92 % of control under setting [12]; 96 % of control under setting [7]; 97 % of control under setting [13]; 95 % of control (endpoint: mean survival time, dose: 100.0 mg/kg/injection, schedule: Q04DX003 (ip), vehicle: saline with Tween-80).
For the molecule `O=C(C[n+]1cccc(C(=O)Nc2ccc(Cl)cc2)c1)NCc1ccccc1`, the T/C reads like this: (endpoint: mean survival time, dose: 100.0 mg/kg/injection, schedule: Q04DX003 (ip), vehicle: saline) 97 % of control; (endpoint: mean survival time, dose: 200.0 mg/kg/injection, schedule: Q04DX003 (ip), vehicle: saline) 94 % of control; (endpoint: mean survival time, dose: 400.0 mg/kg/injection, schedule: Q04DX003 (ip), vehicle: saline) 102 % of control.
As to `CCC(/C=C/C1OC(=O)C=CC1C)=C\C(C)C/C=C/C(C)=C/C(C)C(=O)C(C)C(O)C(C)C/C(C)=C/C(=O)O` (stereo unspecified), the T/C (endpoint: median survival time, dose: 6.25 micrograms/kg/injection, schedule: Q01DX005 (ip), vehicle: saline + alcohol) was 120 % of control; the T/C (endpoint: median survival time, dose: 12.5 micrograms/kg/injection, schedule: Q01DX005 (ip), vehicle: saline + alcohol) was 119 % of control; the T/C (endpoint: median survival time, dose: 12.5 micrograms/kg/injection, schedule: Q01DX009 (ip), vehicle: saline + alcohol) was 101 % of control; the T/C (endpoint: median survival time, dose: 25.0 micrograms/kg/injection, schedule: Q01DX005 (ip), vehicle: saline + alcohol) is 120 % of control; the T/C (endpoint: median survival time, dose: 25.0 micrograms/kg/injection, schedule: Q01DX009 (ip), vehicle: saline + alcohol) was 101 % of control; the T/C (endpoint: median survival time, dose: 50.0 micrograms/kg/injection, schedule: Q01DX009 (ip), vehicle: saline + alcohol) is 115 % of control.
Regarding `O.O=S(=O)(O)O.[Co+3].[NH2-].[NH2-].[NH2-].[NH2-].[NH2-]`, the T/C under setting [9] is 123 % of control.
Take `CCCCCCC#CC(O)CC` (stereo unspecified): the T/C runs as follows: under setting [7], 97 % of control; under setting [6], 105 % of control.
Regarding `CC1(C)C(=O)C(Cl)C(c2ccccc2)=C1c1ccccc1` (stereo unspecified), the T/C was 101 % of control under setting [8], 96 % of control under setting [9] and 101 % of control under setting [10].
With `Cc1ccc(S(=O)(=O)N(C)c2ccc(C(=O)O)c(Cl)c2Cl)cc1`, the T/C runs as follows: under setting [1], 96 % of control; under setting [6], 101 % of control; under setting [2], 93 % of control; under setting [3], 98 % of control; under setting [5], 102 % of control; under setting [4], 98 % of control.
Turning to `c1ccc(C2Cc3ccccc3C2=NC2CCCCC2)cc1` (stereo unspecified), the T/C under setting [1] is 97 % of control, the T/C under setting [2] is 93 % of control and the T/C under setting [5] is 90 % of control.
For `ClC1=NC(Cl)C(Cl)=N/C1=N\c1ncn[nH]1` (stereo unspecified), the T/C under setting [12] is 96 % of control; the T/C under setting [13] was 95 % of control; the T/C (endpoint: mean survival time, dose: 100.0 mg/kg/injection, schedule: Q04DX003 (ip), vehicle: saline sonified) is 93 % of control.
With `C[Si](C)(C)C1([Si](C)(C)C)SCCCS1`, the T/C by setting is: (endpoint: mean survival time, dose: 50.0 mg/kg/injection, schedule: Q01DX009 (ip), vehicle: other) 105 % of control; (endpoint: mean survival time, dose: 100.0 mg/kg/injection, schedule: Q01DX009 (ip), vehicle: other) 105 % of control; (endpoint: mean survival time, dose: 200.0 mg/kg/injection, schedule: Q01DX009 (ip), vehicle: other) 102 % of control.
As for `CCOc1ccc(C(C)c2cc3c(cc2OC)OCO3)cc1` (stereo unspecified), the T/C runs as follows: (endpoint: median survival time, dose: 25.0 mg/kg/injection, schedule: Q01DX009 (ip), vehicle: distilled water + Tween-80) 104 % of control; (endpoint: median survival time, dose: 25.0 mg/kg/injection, schedule: Q01DX009 (ip), vehicle: saline with Tween-80) 117 % of control; (endpoint: median survival time, dose: 50.0 mg/kg/injection, schedule: Q01DX009 (ip), vehicle: distilled water + Tween-80) 104 % of control; (endpoint: median survival time, dose: 50.0 mg/kg/injection, schedule: Q01DX009 (ip), vehicle: saline with Tween-80) 109 % of control; (endpoint: median survival time, dose: 100.0 mg/kg/injection, schedule: Q01DX009 (ip), vehicle: distilled water + Tween-80) 109 % of control; (endpoint: median survival time, dose: 100.0 mg/kg/injection, schedule: Q01DX009 (ip), vehicle: saline with Tween-80) 110 % of control. Further, the T/C was 124 % of control (endpoint: median survival time, dose: 200.0 mg/kg/injection, schedule: Q01DX009 (ip), vehicle: distilled water + Tween-80) and 150 % of control (endpoint: median survival time, dose: 200.0 mg/kg/injection, schedule: Q01DX009 (ip), vehicle: saline with Tween-80).
